The test system of assay [1] is Erysiphe [syn. Blumeria] graminis form a specialis. tritici. Briefly: Efficacy against wheat mildew caused by Erysiphe [syn. Blumeria] graminis forma specialis tritici. The assay is classed as in vivo. Conditions: wheat seedlings sprayed, dusted with spores 24 hours later, rated after 7 days, untreated control 90% infestation.
Another assay deals with Phytophthora infestans. In kind it is in vivo, Phytophthora infestans on potted tomato plants. To be noted: 1 ppm; protective spray on tomato leaves, infested next day, rated after 6 days; efficiency by Abbot's formula vs untreated control (90% infestation).

For `COc1ccc(C(=CC(=O)N2CCOCC2)c2ccc(F)cc2)cc1OC` [flumorph (IIA), 4-[3-(3,4-dimethoxyphenyl)-3-(4-fluorophenyl)-1-oxo-2-propenyl]morpholine], the “Observed action (%)” value in assay [1] (4 ppm) turned out to be 0%.

As to `COc1ccc(C(=CC(=O)N2CCOCC2)c2ccc(Cl)cc2)cc1OC` [dimethomorph (II), 3-(4-chlorophenyl)-3-(3,4-dimethoxyphenyl)-1-morpholin-4-ylpropenone], the “Observed action (%)” value came to 0% in assay [1] (4 ppm) and 22% with Phytophthora infestans. In the case of `CO/C=C(/C(=O)OC)c1ccccc1CO/N=C(C)/C=C/c1ccc(Cl)cc1` [enestrobin (I), methyl 2-(2-[3-(4-chlorophenyl)-1-methyl-allylidenaminooxymethyl]phenyl)-3-methoxyacrylate], the figures for the “Observed action (%)” value (in assay [1] (16 ppm); with Phytophthora infestans) were 33% and 0%, respectively.

Source of the values: patent US20080274883A1, “Fungicidal Mixtures” (BASF AKTIENGESELLSCHAFT, priority 2004, published 2008).
